Test results from the supplement of paper PMC10307832.

Columns and labels:
Assay in all cases: relative viability (nuclei count vs DMSO), 5 days (fraction); higher = more cells survive
HCC-15 = system: HCC-15
In short: (§1)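 Relative viability is defined as nuclei in treated wells over nuclei in vehicle wells. Duplicate plates were run and medians reported. Lung cancer cell lines in 1536-well plates were dosed by pin tool one day after seeding, with one drug or with a fixed anchor-drug dose plus five library-drug doses (not always all listed) in √10 steps, and nuclei were counted after 5 days.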

NCI-H596 = system: NCI-H596
In short: as §1

NCI-H2009 = system: NCI-H2009
In short: as §1

NCI-H2023 = system: NCI-H2023
In short: as §1

NCI-H2405 = system: NCI-H2405
In short: as §1

NCI-H1975 = system: NCI-H1975
In short: as §1

A-427 = system: A-427
In short: as §1

SK-LU-1 = system: SK-LU-1
In short: as §1

LXF-289 = system: LXF-289
In short: as §1

HCC-366 = system: HCC-366
In short: as §1

NCI-H1437 = system: NCI-H1437
In short: as §1

UMC-11 = system: UMC-11
In short: as §1

NCI-H1915 = system: NCI-H1915
In short: as §1

NCI-H3122 = system: NCI-H3122
In short: as §1

NCI-H460 = system: NCI-H460
In short: as §1

NCI-H650 = system: NCI-H650
In short: as §1

PC-14 = system: PC-14
In short: as §1

H3255 = system: H3255
In short: as §1

PC-3 [JPC-3] = system: PC-3 [JPC-3]
In short: as §1

NCI-H441 = system: NCI-H441
In short: as §1

HARA = system: HARA
In short: as §1

NCI-H1755 = system: NCI-H1755
In short: as §1

NCI-H1793 = system: NCI-H1793
In short: as §1

O=C(O)CCCCC(CCSCc1ccccc1)SCc1ccccc1 (centres undefined) [CPI-613] + Nc1nc2[nH]cc(CCc3ccc(C(=O)N[C@@H](CCC(=O)O)C(=O)O)cc3)c2c(=O)[nH]1 [Pemetrexed] (partner 0.2 µM)
relative viability (HCC-15; first compound 5 µM): 0.231
relative viability (HCC-15; first compound 15.81 µM): 0.227
relative viability (HCC-15; first compound 50 µM): 0.221
relative viability (HCC-15; first compound 158.11 µM): 0.155
relative viability (HCC-15; first compound 500 µM): 0.0248
relative viability (NCI-H596; first compound 5 µM): 0.538
relative viability (NCI-H596; first compound 15.81 µM): 0.48
relative viability (NCI-H596; first compound 50 µM): 0.519
relative viability (NCI-H596; first compound 158.11 µM): 0.352
relative viability (NCI-H596; first compound 500 µM): 0.0295
relative viability (NCI-H2009; first compound 5 µM): 0.985
relative viability (NCI-H2009; first compound 15.81 µM): 1
relative viability (NCI-H2009; first compound 50 µM): 0.947
relative viability (NCI-H2009; first compound 158.11 µM): 0.322
relative viability (NCI-H2009; first compound 500 µM): 0.0262
relative viability (NCI-H2023; first compound 5 µM): 0.233
relative viability (NCI-H2023; first compound 15.81 µM): 0.2
relative viability (NCI-H2023; first compound 50 µM): 0.175
relative viability (NCI-H2023; first compound 158.11 µM): 0.0911
relative viability (NCI-H2023; first compound 500 µM): 0.0103
relative viability (NCI-H2405; first compound 5 µM): 1.04
relative viability (NCI-H2405; first compound 15.81 µM): 0.922
relative viability (NCI-H2405; first compound 50 µM): 0.968
relative viability (NCI-H2405; first compound 158.11 µM): 0.63
relative viability (NCI-H2405; first compound 500 µM): 0.336
relative viability (NCI-H1975; first compound 5 µM): 0.267
relative viability (NCI-H1975; first compound 15.81 µM): 0.293
relative viability (NCI-H1975; first compound 50 µM): 0.286
relative viability (NCI-H1975; first compound 158.11 µM): 0.142
relative viability (NCI-H1975; first compound 500 µM): 0.0754
relative viability (A-427; first compound 5 µM): 1.04
relative viability (A-427; first compound 15.81 µM): 0.84
relative viability (A-427; first compound 50 µM): 0.928
relative viability (A-427; first compound 158.11 µM): 0.857
relative viability (A-427; first compound 500 µM): 0.444
relative viability (SK-LU-1; first compound 5 µM): 0.958
relative viability (SK-LU-1; first compound 15.81 µM): 0.88
relative viability (SK-LU-1; first compound 50 µM): 0.87
relative viability (SK-LU-1; first compound 158.11 µM): 0.22
relative viability (SK-LU-1; first compound 500 µM): 0.0978
relative viability (LXF-289; first compound 5 µM): 0.903
relative viability (LXF-289; first compound 15.81 µM): 0.828
relative viability (LXF-289; first compound 50 µM): 0.851
relative viability (LXF-289; first compound 158.11 µM): 0.757
relative viability (LXF-289; first compound 500 µM): 0.568
relative viability (HCC-366; first compound 5 µM): 0.135
relative viability (HCC-366; first compound 15.81 µM): 0.152
relative viability (HCC-366; first compound 50 µM): 0.162
relative viability (HCC-366; first compound 158.11 µM): 0.123
relative viability (HCC-366; first compound 500 µM): 0.0078
relative viability (NCI-H1437; first compound 5 µM): 0.328
relative viability (NCI-H1437; first compound 15.81 µM): 0.295
relative viability (NCI-H1437; first compound 50 µM): 0.301
relative viability (NCI-H1437; first compound 158.11 µM): 0.0937
relative viability (NCI-H1437; first compound 500 µM): 0.0871
relative viability (UMC-11; first compound 5 µM): 0.703
relative viability (UMC-11; first compound 15.81 µM): 0.8
relative viability (UMC-11; first compound 50 µM): 0.758
relative viability (UMC-11; first compound 158.11 µM): 0.36
relative viability (UMC-11; first compound 500 µM): 0.115
relative viability (NCI-H1915; first compound 5 µM): 0.415
relative viability (NCI-H1915; first compound 15.81 µM): 0.513
relative viability (NCI-H1915; first compound 50 µM): 0.458
relative viability (NCI-H1915; first compound 158.11 µM): 0.409
relative viability (NCI-H1915; first compound 500 µM): 0.0364
relative viability (NCI-H3122; first compound 5 µM): 0.19
relative viability (NCI-H3122; first compound 15.81 µM): 0.194
relative viability (NCI-H3122; first compound 50 µM): 0.181
relative viability (NCI-H3122; first compound 158.11 µM): 0.181
relative viability (NCI-H3122; first compound 500 µM): 0.153
relative viability (NCI-H460; first compound 5 µM): 0.0641
relative viability (NCI-H460; first compound 15.81 µM): 0.0607
relative viability (NCI-H460; first compound 50 µM): 0.0741
relative viability (NCI-H460; first compound 158.11 µM): 0.0795
relative viability (NCI-H460; first compound 500 µM): 0.0168
relative viability (NCI-H650; first compound 5 µM): 1.01
relative viability (NCI-H650; first compound 15.81 µM): 0.821
relative viability (NCI-H650; first compound 50 µM): 0.897
relative viability (NCI-H650; first compound 158.11 µM): 0.641
relative viability (NCI-H650; first compound 500 µM): 0.826
relative viability (PC-14; first compound 5 µM): 0.133
relative viability (PC-14; first compound 15.81 µM): 0.13
relative viability (PC-14; first compound 50 µM): 0.122
relative viability (PC-14; first compound 158.11 µM): 0.121
relative viability (PC-14; first compound 500 µM): 0.0065
relative viability (H3255; first compound 5 µM): 0.543
relative viability (H3255; first compound 15.81 µM): 0.54
relative viability (H3255; first compound 50 µM): 0.543
relative viability (H3255; first compound 158.11 µM): 0.534
relative viability (H3255; first compound 500 µM): 0.523
relative viability (PC-3 [JPC-3]; first compound 5 µM): 1.13
relative viability (PC-3 [JPC-3]; first compound 50 µM): 1.11
relative viability (PC-3 [JPC-3]; first compound 158.11 µM): 0.606
relative viability (PC-3 [JPC-3]; first compound 500 µM): 0.362
relative viability (NCI-H441; first compound 5 µM): 0.266
relative viability (NCI-H441; first compound 15.81 µM): 0.242
relative viability (NCI-H441; first compound 50 µM): 0.236
relative viability (NCI-H441; first compound 158.11 µM): 0.151
relative viability (NCI-H441; first compound 500 µM): 0.0045
relative viability (HARA; first compound 5 µM): 0.26
relative viability (HARA; first compound 15.81 µM): 0.229
relative viability (HARA; first compound 50 µM): 0.236
relative viability (HARA; first compound 158.11 µM): 0.269
relative viability (HARA; first compound 500 µM): 0.0403
relative viability (NCI-H1755; first compound 5 µM): 0.436
relative viability (NCI-H1755; first compound 15.81 µM): 0.57
relative viability (NCI-H1755; first compound 50 µM): 0.371
relative viability (NCI-H1755; first compound 158.11 µM): 0.396
relative viability (NCI-H1755; first compound 500 µM): 0.372
relative viability (NCI-H1793; first compound 5 µM): 0.895
relative viability (NCI-H1793; first compound 15.81 µM): 0.71
relative viability (NCI-H1793; first compound 50 µM): 0.832
relative viability (NCI-H1793; first compound 158.11 µM): 0.378
relative viability (NCI-H1793; first compound 500 µM): 0.0257
